Source: US20260102387A1, “IMMUNOSUPPRESSIVE COMPOUNDS” (UNIVERSITÄT BASEL, priority 2022, published 2026)

How the values were obtained:
[1] = tested on: RBL cells; assay: In vitro toxicity, MTT assay; type: cell-based, Rat
Experimental: MTT assay was performed with 3-(4,5-dimethylthiazol-2-yl)-2,5-diphenyltetra-zolium bromide (MTT, Cayman chemicals) using the manufacturers protocol. In brief, RBL cells pretreated with coronin 1 expression inhibitor or vehicle controls were reseeded and cultured in a 96-well plate at a concentration of […] cells/ml of culture media, 10 μL of MTT was added and incubated for 4 h at 37° C. At the end, culture supernatant was removed and the formazan crystals were dissolved with 100 μl of crystal dissolving solution and the absorbance measured at 570 nm using a plate reader (Synergy) (FIG. 5B).

[2] = tested on: coronin 1; assay: Western blotting of coronin 1 protein levels in RBL cells; type: cell-based, Rat; details: RBL cell lines, chemiluminescence imager
Experimental: (§1) buffer with 0.2% SDS containing protease and phosphatase inhibitors (Roche) at 4° C., followed by protein determination (BCA, Pierce) and SDS-PAGE with equal protein amounts transferred onto nitrocellulose and probed using antibodies against the indicated proteins (actin and coronin 1) followed by HRP-labeled secondary antibodies and developed using an enhanced chemi-luminescence imager (Fuji) (FIG. 3C).

[3] = tested on: human PBMCs (CD4 and CD8 T cells); assay: Proinflammatory cytokine production in human PBMCs after CD3/CD28 stimulation, flow cytometry; type: cell-based; details: 10 μg/ml, 4.5 days, CD3 and CD28 antibodies
Experimental: Heparinized or EDTA treated blood or buffy coat from healthy volunteers were enriched for monocytes using the standard Histopaque 1.077 gradient centrifugation methodology. Post enrichment, the monocyte fraction was washed extensively with plain RPMI and subsequently counted and seeded in 96 well plate at a density of 0.2 million cells/well in a volume of 200 μl RPMI-1640 (Sigma) containing 1× penicillin and streptomycin (Gibco), 2 mM L-glutamine (Gibco), 10% heat inactivated FCS (PAA) and heparin 50 units/ml along with the vehicle (DMSO) or coronin 1 inhibitor at indicated concentrations. Cells were incubated in a 37° C. humidified incubator with a 5% CO2 for five days with the expression inhibitor and vehicle replenished in between at 48 hours post seeding by replacing 50% of the media. Subsequently, the cells were assessed for coronin 1 down regulation by Western blotting (FIG. 8A) and in parallel stimulated with anti-CD3 (2 μg/ml) and anti-CD28 (10 μg/ml) antibodies overnight and treated with brefeldin A for a duration of 4 h and subjected to surface staining (for CD3, CD4, CD8 and CD19) along with live-dead marker and fixed with 4% formaldehyde, permeabilized with 0.1% saponin and subjected to intracellular staining for interleukin-2 (FIG. 8B,C).

[4] = tested on: coronin 1; assay: Coronin 1 Western blotting in human PBMCs; type: cell-based; details: 10 μg/ml, 5 days
Experimental: as §1, with “SDS-PAGE,” for “SDS-PAGE with equal protein amounts”, “8A).” for “3C).”
Heparinized or EDTA treated blood or buffy coat from healthy volunteers were enriched for monocytes using the standard Histopaque 1.077 gradient centrifugation methodology. Post enrichment, the monocyte fraction was washed extensively with plain RPMI and subsequently counted and seeded in 96 well plate at a density of 0.2 million cells/well in a volume of 200 μl RPMI-1640 (Sigma) containing 1× penicillin and streptomycin (Gibco), 2 mM L-glutamine (Gibco), 10% heat inactivated FCS (PAA) and heparin 50 units/ml along with the vehicle (DMSO) or coronin 1 inhibitor at indicated concentrations. Cells were incubated in a 37° C. humidified incubator with a 5% CO2 for five days with the expression inhibitor and vehicle replenished in between at 48 hours post seeding by replacing 50% of the media. […]

[5] = tested on: early cytomegalovirus promoter; assay: Screening assay control: CMV promoter driven RFP in RBL cells (microplate reader); type: cell-based; details: 5 μg/ml, 48 h, microplate reader, DMSO = 100, read-out: RFP values (%)
Experimental: As an unrelated promoter, the early cytomegaloviral promoter element was cloned into a promoterless Red Fluorescence Protein (RFP) expression plasmid. Rat Basophil Leukemia (RBL) cells were transfected with the plasmid, stable RFP expressing cells enriched, incubated with various compounds and were assessed for red fluorescence values. Analyzing the inhibition of an unrelated promoter (in this case, early cytomegalovirus promoter) that drove Red Fluorescence Protein (RFP) expression assessed non-specificity of the compound under analysis.
(§2) The plasmids were independently transfected into immune cells (Rat basophil Leukemia, RBL cells) to generate green and red fluorescent RBL cells that were subsequently enriched by means of flow cytometry. These cells were then mixed in equal ratio (1:1) and incubated in a 96 well plate at 100,000 cells/well in a volume of 200 μl of phenol red free RPMI supplemented with 8% fetal calf serum, L-glutamate and antibiotics (penicillin, streptomycin) and various compounds (3 and 5 μg/ml concentrations) from available chemical libraries. At defined time points (8 h, 24 h and 48 h), the GFP and RFP fluorescence was measured using a 96 well microplate reader (Synergy, BioTek Instruments). […] Selected compounds show different levels of modulation of coronin 1 promoter driven GFP and CMV promoter driven RFP fluorescence. GFP and RFP fluorescence were analyzed with a microplate reader upon incubation with the top coronin 1 promoter inhibiting compounds. Shown are percentage of GFP reduction (left column) and percentage of RFP reduction (right column) for the compounds at 5 μg/ml concentration at 48 h. Cycloheximide (CHX) serves as positive control whereas media and DMSO serve as negative controls. […] Cells were imaged using a fluorescence microscope to validate fluorescence inhibition (FIG. 3A) and as well assess morphology and viability (in addition to GFP down regulation confirmation). In addition, quantitative Polymerase Chain Reaction (qPCR) for coronin 1 mRNA transcripts reveal reduction with compound 11 (FIG. 3B). The primers used for the qPCR on RBL cells are listed below as follows;

[6] = tested on: coronin 1 promoter; assay: EC50 analysis for coronin 1 promoter driven GFP inhibition by flow cytometry in RBL cells; type: cell-based; details: RBL, RBL cells, 48-65 h, flow cytometry
Procedure, shortened: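 RBL cells carrying coronin 1 promoter–GFP, mixed with CMV promoter–RFP cells, exposed to compounds 48–65 h and analyzed by flow cytometry with live/dead staining. EC50 derived from GFP inhibition, with RFP and viability as nonspecific and toxicity counter-reads; cycloheximide and DMSO as controls, relative potency normalized to a reference compound.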

[7] = tested on: coronin 1 mRNA; assay: Quantitative PCR of coronin 1 mRNA in RBL cells; type: cell-based, Rat; details: 3.5 μg/ml, 7 days
Experimental: as §2, with “compounds.” for “compounds. Shown are percentage of GFP reduction (left column) and percentage of RFP reduction (right column) for the compounds at 5 μg/ml concentration at 48 h. Cycloheximide (CHX) serves as positive control whereas media and DMSO serve as negative controls.”, “The primers used for the qPCR on RBL cells are listed below as follows;” left out

[8] = tested on: CMV promoter; assay: EC50 analysis for CMV promoter driven RFP inhibition (non-specific activity) by flow cytometry in RBL cells; type: cell-based, cytomegalovirus; details: 48-65 h, read-out: EC50 RFP alteration
Experimental: RBL cells expressing GFP under coronin 1 promoter and optionally with RBL cells expressing RFP under CMV promoter were mixed in equal numbers and incubated with the compounds at indicated concentrations for 48-65 h and analyzed by flow cytometry for alteration in coronin 1 promoter (GFP fluorescence), CMV promoter (RFP fluorescence) values. In addition, the cells were labelled with live-dead marker for assessing cell viability status by flow cytometry. Cycloheximide (CHX) serves as positive control and DMSO serves as negative controls. Effective Concentration (EC50) values for coronin 1 promoter inhibition via GFP fluorescence analysis, non-specific promoter inhibition via CMV promoter driven-RFP fluorescence analysis and cell viability via live/dead staining as a measure for toxicity in flow cytometry for compounds (10-22 and 50a-65a) are shown in Table 6 and Table 7. Based on the EC50 analysis of the inhibition of coronin 1 promoter driven GFP fluorescence the (4S,7R)-configurated eutomers were identified (Structures FIG. 9A-C). This is exemplified for compounds containing two stereocenters by eutomers 11c and 13a. […] Subsequent EC50 evaluations (Table 7) were performed with compound 13a as standard for relative potency normalized to a value of 1.00 (relative potency calculated as [EC50 GFP inhibition 13a]/[EC50 GFP inhibition compound of interest]).

Structure (SMILES): COC(=O)C1=C(C)NC2=C(C(=O)CC(c3ccccc3OC)C2)C1c1cccc(O)c1 (centres unmarked) [Comp. 11, methyl-4-(3-hydroxyphenyl)-7-(2-methoxyphenyl)-2-methyl-5-oxo-1,4,5,6,7,8-hexahydro-3-quinolinecarboxylate]
- in vitro toxicity by MTT assay [1]: minimal toxicity
- coronin 1 depletion (Western blotting, protein level) [2]: ~80%
- production of interleukin-2 (IL-2) in CD4 and CD8 T cells post T cell receptor stimulation [3]: attenuates immune responses
- coronin 1 depletion in human PBMCs (Western blotting) [4]: coronin 1 depletion
- activity at 5 µg/mL [5]: 111%
- EC50 [6]: 1200 nM
- coronin 1 mRNA transcripts (qPCR) [7]: reduction in coronin 1 transcripts
- EC50 [8]: > 9000 nM
